Results published in US12447238B2, “Antimicrobial tubular conduits” (SANIDRINK S.R.L., priority 2020, dated 2025).
pIC50: −log10 of the molar value. Values after ≈ are worked out from the molar mass of the structure shown. Peptide text beside a SMILES is read from it.

Assays:
[1] = system: L. monocytogenes (LM2) (field strain); assay: IC50 by broth microdilution and plate count against L. monocytogenes; assay type: cell-based, Listeria monocytogenes; conditions: 6 hours at 37° C. in Fraser Broth, plate count
Procedure: (§1) The bactericidal activity of RiLK1 peptides was assessed against both Gram positive (Listeria monocytogenes LM2 and Staphylococcus aureus) and Gram negative (Salmonella typhimurium and Escherichia coli) pathogenic bacteria.
(§2) The assessment of the concentration of RiLK1 peptides capable of inhibiting 50% of bacterial growth (IC50) was performed by the broth microdilution assay as described in Wang HX and Ng TB (2003, Peptides 24:969-972).
(§3) Standard deviations were obtained from triplicate experiments for each peptide dilution, and the IC50s were determined using GraphPad Prism version 6.00 (Graph-Pad Software, La Jolla California USA).
(§4) All bactericidal activity assays were performed using 2-3 log CFUs (Colony Forming Units), which represents a realistic approximation of the contamination levels that may be contained in the tubular conduits for food or medical use.
All experimental conditions investigated used the plate count method to estimate the bactericidal activity of the peptides. Specifically, the numbers of colonies grown on agar plates seeded with the bacterial suspensions in the absence or presence of the individual peptide dilutions were counted and compared. Standard deviations were determined using statistical software. […]

E. coli (ATCC) [2] = assay type: cell-based, Escherichia coli; conditions: 6 h
Procedure: as §1, §2, §3, §4
All experimental conditions investigated used the plate count method to estimate the bactericidal activity of the peptides. Specifically, the numbers of colonies grown on agar plates seeded with the bacterial suspensions in the absence or presence of the individual peptide dilutions were counted and compared. Standard deviations were determined using statistical software.
A control stock suspension was prepared in which 10^3 CFUs of E. coli were inoculated in 10 ml of BPW (Oxoid, Basingstoke, UK). […]

[3] = system: L. monocytogenes (LM2) (field strain); assay: Minimum Bactericidal Concentration (MBC) against L. monocytogenes; assay type: cell-based, Listeria monocytogenes; conditions: 99.9% inhibition of bacterial growth on plates
Procedure: (§5) The evaluation of the Minimum Bactericidal Concentration (MBC), i.e., the lowest concentration of antimicrobial agent capable of 99.9% inhibition of bacterial growth on plates, was carried out as described in Bilikova et al, (2015, Peptides 68:190-196).

E. coli (ATCC) [4] = assay: Minimum Bactericidal Concentration (MBC) against E. coli; assay type: cell-based, Escherichia coli; conditions: 99.9% inhibition of bacterial growth on plates
Procedure: as §5

[5] = system: Aspergillus brasiliensis (ATCC 9341); assay type: cell-based
Procedure: The antifungal activity of the RiLK1 peptide was determined against Aspergillus brasiliensis. For this purpose, a stock culture was prepared in which 10^5 CFUs of A. brasiliensis were inoculated in 10 ml of buffered peptone water. A reference strain (ATCC 9341) was used for this fungal species. The culture was incubated for 6 h at 37° C. with the RiLK1 peptide at 25 μM concentrations.
At the same time, control samples were incubated without adding the peptide. 100 μl of the samples thus prepared were seeded on DG18 plates (Dichloran 18% Glycerol Agar—ISO 21527-2) and incubated at 25° C. for 7 days.
(§6) All experimental conditions investigated used the plate count method to estimate the fungicidal activity of the peptide. Specifically, the numbers of colonies grown on agar plates seeded with the fungal suspensions in the absence or presence of the individual peptide dilutions were counted and compared. The standard deviations of the triplicate incubations of each plate were determined using statistical software. The evaluation of the Minimum Fungicidal Concentration (MFC), i.e., the lowest concentration of antifungal agent capable of 99.9% inhibition of fungal growth on plates, was carried out as described in Bilikova et al, (2015, Peptides 68:190-196).

[6] = system: Candida albicans (ATCC 14053); assay type: cell-based
Procedure: The inhibitory activity of the RiLK1 peptide was determined against the yeast Candida albicans. A stock culture was prepared in which 10^5 CFUs of C. albicans were inoculated in 10 ml of buffered peptone water. A reference strain (ATCC 14053) was used for this species. The culture was incubated for 6 h at 37° C. with the RiLK1 peptide at 25 μM concentrations. At the same time, control samples were incubated without adding the peptide. 100 μl of the samples thus prepared were seeded on DG18 plates (Dichloran 18% Glycerol Agar—ISO 21527-2) and incubated at 25° C. for 7 days.
as §6, with “antimycotic” for “fungicidal”, “cultures” for “fungal suspensions”

E. coli = assay: Bactericidal activity of AMP peptides at 15 μM (CFU vs control), E. coli; assay type: cell-based; conditions: peptide 15 μM
Procedure: (§7) The bactericidal activity of further AMP peptides used in the invention, in particular of the RiLK31 peptide (RLRWVKIWKK, SEQ ID NO:31) and the RiLK3 peptide (RLRWVRIWRR, SEQ ID NO:3), was tested. The bactericidal activity was expressed as a percentage of viable cells in terms of CFU (Colony Forming Units) in a bacterial sample exposed to each peptide compared to those in a control bacterial sample in the absence of the peptide. All tests were carried out with the same peptide concentration, corresponding to 15 μM.

Staphylococcus = assay: Bactericidal activity of AMP peptides at 15 μM (CFU vs control), Staphylococcus; assay type: cell-based; conditions: peptide 15 μM
Procedure: as §7

Salmonella = assay: Bactericidal activity of AMP peptides at 15 μM (CFU vs control), Salmonella; assay type: cell-based; conditions: peptide 15 μM
Procedure: as §7

Listeria = assay: Bactericidal activity of AMP peptides at 15 μM (CFU vs control), Listeria; assay type: cell-based; conditions: peptide 15 μM
Procedure: as §7

Compound | pIC50 [1] | pIC50 (E. coli (ATCC) [2]) | MBC [3] [µM] | MBC (E. coli (ATCC) [4]) [µM] | post-treatment decrease in the fungal load ([5]; A. brasiliensis, 25 μM peptide, 6 h at 37° C.) [Log] | Drop Log CFU/ml ([5]; A. brasiliensis, 10^5 CFUs, 25 μM peptide, 6 h at 37° C.) [Log CFU/ml] | MFC ([5]; ATCC 9341, 6 h) | MFC ([6]; ATCC 14053, 6 h) | post-treatment decrease in the fungal load ([6]; C. albicans, 25 μM peptide, 6 h at 37° C.) [Log] | Drop Log CFU/ml ([6]; C. albicans, 10^5 CFUs, 25 μM peptide, 6 h at 37° C.) [Log CFU/ml] | bactericidal activity expressed as a percentage of viable cells (CFU) vs control (E. coli) [%] | bactericidal activity expressed as a percentage of viable cells (CFU) vs control (Staphylococcus) [%] | bactericidal activity expressed as a percentage of viable cells (CFU) vs control (Salmonella) [%] | bactericidal activity expressed as a percentage of viable cells (CFU) vs control (Listeria) [%]
CC[C@H](C)[C@H](NC(=O)[C@H](CCCNC(=N)N)NC(=O)[C@@H](NC(=O)[C@H](Cc1c[nH]c2ccccc12)NC(=O)[C@H](CCCCN)NC(=O)[C@H](CC(C)C)NC(=O)[C@@H](N)CCCNC(=N)N)C(C)C)C(=O)N[C@@H](Cc1c[nH]c2ccccc12)C(=O)N[C@@H](CCCNC(=N)N)C(=O)N[C@@H](CCCNC(=N)N)C(N)=O [RiLK1, RLKWVRIWRR] (H-RLKWVRIWRR-NH2; N-terminus assumed) | 6.34 | 5.92 | 2 (≈ 2.94 µg/mL) | 2 (≈ 2.94 µg/mL) | 5 | 5 | less than or equal to 25 μM | less than or equal to 25 μM | 5 | 5 | 100 | 96.9 | 100 | 99.5
RLRWVKIWKK (AMP) [RiLK31] |  |  |  |  |  |  |  |  |  |  | 100 | 83 | 100 | 98.8
RLRWVRIWRR (AMP) [RiLK3] |  |  |  |  |  |  |  |  |  |  | 100 | 96 | 100 | 99
